One test has as its system cyclin D1. The test can be described thus: Immunofluorescence staining of cyclin D1 localization. The conditions noted are these: PC3 cells, 2 μg/ml, 2 days. The format is cell-based, human. Here is the method: FIGS. 3A-3C. Mahanine down-regulates cyclin D1 protein in prostate cancer cells. FIG. 3A and FIG. 3B: Western blots showing cyclin D1 protein levels in PC3 (A) and LNCaP (B) cells treated with 0, 1, 2 and 3 μg/ml mahanine for 3 days. Protein lysates (50 μg) from PC3 and LNCaP cells were resolved on 12% SDS-PAGE, and immunoblots were probed with antibodies to cyclin D1. All immunoblots were re-probed with β-actin antibodies to ensure equal loading. Representative photographs from an experiment that was repeated thrice. Quantitative analyses of relative levels of cyclin D1 proteins are shown on the right panels. […] FIG. 3C: PC3 cells were plated on chamber slides and treated with or without 2 μg/ml mahanine for 2 days. Cells were then fixed in methanol, incubated with cyclin D1 antibody overnight, Alexi Fluor-conjugated secondary antibodies for 1 hour and counter stained with propidium iodide (PI). Slides were then mounted and examined using a fluorescence microscope. Photographs were taken at the same magnification (×20) and then transported to Photoshop. Representative photographs from an experiment that was repeated twice.
Immunofluorescence staining: PC3 cells were plated onto chamber slides and treated with vehicle or mahanine (2 μg/ml) for 2 days. The cells were fixed in methanol, air-dried, and re-hydrated with PBS. […]

A further test has as its system LNCaP cells. The test can be described thus: Flow cytometric cell cycle analysis, LNCaP. The format is cell-based, human. The conditions noted are these: mahanine 3 days. How it is done: FIG. 4A-4B. Mahanine arrests prostate cancer cells at G0/G1 phase of cell cycle. To determine if down-regulation of cyclin D1 by mahanine treatments affect cell cycle, PC3 4(A) and LNCaP 4(B) cells were treated with 0, 1 and 2 μg/ml mahanine for 3 days. After treatment, flow cytometric analyses were performed. The percentage of cells in the G0/G1, S and G2/M-phase of the cell cycle were shown on right. FACS analysis of PC3 and LNCaP prostate cancer cells with vehicle or 2 μg/ml mahanine are shown in the left panel. Values are the mean from two independent experiments in duplicates.
Since cyclin D1 regulates cell cycle progression at the G0/G1 phase, Aplicants examined the cell cycle profile of PC3 and LNCaP cells in the presence of various concentrations of mahanine.

Another test concerns cyclin D1 promoter. The test can be described thus: Cyclin D1 promoter activity (luciferase) assay. The format is cell-based, human. To be noted: PC3 cells. How it is done:
FIGS. 6A-6B. Mahanine regulates the transcriptional activity of cyclin D1 and RASSF1A siRNA prevents mahanine-induced repression of cyclin D1 transcriptional activity. FIG. 6A: PC3 cells were transfected with 200 ng of full-length cyclin D1 promoter luciferase plasmids (−1745cyclin D1-Luc) or basic luciferase (PA3-Luc) plasmids and 10 ng of Renilla luciferase (pRL-TK-Luc) plasmids. Twenty-four hours after transfection cells were treated with 0, 1 and 2 μg/ml mahanine for 48 hours in normal growth media. FIG. 6B: PC3 cells were transfected with 200 ng of full-length cyclin D1 promoter luciferase plasmids or basic luciferase plasmids and 10 ng of Renilla luciferase (pRL-TK-Luc) plasmids with 200 ng of RASSF1A or RASSF1A siRNA with or without 2 μg/ml mahanine for 48 hours in normal growth media. After treatment, cells were harvested, and luciferase assays were performed. Relative cyclin D1 promoter activity was determined after normalization with Renilla luciferase activity. […]
Cyclin D1 promoter activity assay: PC3 cells were transfected with 200 ng of cyclin D1 promoter-luciferase (−1745-cyclin D1-Luc) (35) construct using GeneJammer transfection reagent (Stratagene, La Jolla, Calif.). […] After 48 hours, luciferase activity was measured in cell lysates in a microplate luminometer using the Dual Luciferase Assay kit (Promega, Madison, Wis.) according to the manufacturer's protocol. […]

Test [1] deals with LNCaP and PC3 cells. The conditions noted are these: androgen-responsive LNCaP and androgen-independent PC3 cells; cited from earlier work.
The test system of test [2] is LNCaP and PC3 cells. The conditions noted are these: 3 μg/ml; cited from earlier work.
The test system of a further test is caspase-3. To be noted: PC3 cells; cited from earlier work.

Here are results for one compound from patent US20100130579A1, “CANCER THERAPY” (Georgetown University, priority 2006, published 2010).

On to `CC(C)=CCC[C@@]1(C)C=Cc2c(c(C)cc3c2[nH]c2cc(O)ccc23)O1` [mahanine], for which the “nuclear localization of cyclin D1” value with cyclin D1 was “reduced and/or prevented the nuclear localization”. Moreover, the “cells in S-phase” value in the test on LNCaP cells (decreased from 25.6% (control)) is recorded as 6.1%. In addition, the “cells in G0/G1 phase” value in the test with LNCaP cells (increased from 63.7% (control)) is 90.7%. Moreover, the “cyclin D1 promoter activity” value in the test with cyclin D1 promoter (1 and 2 μg/ml mahanine, 48 hours, P<0.01) was “decreased cyclin D1 promoter activity in a dose-dependent manner”. In addition, the “cyclin D1 promoter activity relative to basic vector transfected cells” value in the test on cyclin D1 promoter (full-length cyclin D1 promoter luciferase construct) was “approximately 20 fold”. The “growth of prostate cancer cells” value in the test with LNCaP and PC3 cells [1] was “inhibits growth in a dose-dependent manner”. The apoptosis result in the test with LNCaP and PC3 cells [2] is given as “induces apoptosis”. For the same compound, the “caspase-3 cleavage and activation” value with caspase-3 was “greatly increased caspase-3 cleavage and activation”.
